Patent US9359342B2, “Protein disulfide isomerase inhibiting anticancer agents” (THE CLEVELAND CLINIC FOUNDATION, priority 2013, dated 2016)

Legend:
Tolerability in mice = format: in vivo, C57BL/KaLwRij mice
MM1.S = MM1.S myeloma cell viability; format: cell-based; settings: Homo sapiens; for viability at 6.75 µM: MM1.S, compound at 6.75 μM, read-out: MM1.S Viable cells at 6.75 μM (%); for IC50: MM1.S myeloma cells
Description: Cell lines: Multiple myeloma cell lines MM1.S, MM1.R, NCI-H929 were obtained from ATCC. MM cell lines KMS-12-PE and KMS-12-BM were from the JCRB, JJN-3 from DSMZ, and 5TGM1-luc cells were from Dr. Yoneda at the University of Texas Health Science at San Antonio. HRMM.09 cells were generated in the inventor's lab from a patient who developed refractory myeloma after treatment with steroids, IMiD, proteasome inhibitors, DNA alkylators, and anthracyclines. MM1.S-luc and HRMM.09-luc were generated in the inventor's laboratory by transduction with Cignal™ firefly luciferase control lentivirus obtained from Qiagen™. Lymphoma cells were generated by Mitchell Smith. All MM and lymphoma cells were grown in RPMI 1640 (NaCl 103.45 mM, NaCO3 23.81 mM, Na2HPO4 5.63 mM, KCl 5.33 mM, Ca(NO3)2 4H2O 0.424 mM, MgSO4 0.407 mM, pH around 7.2), supplemented with 10% fetal bovine serum, penicillin G (50 units ml^−1), and streptomycin ([…]). HS-5 cells were grown in appropriate cell culture media. Normal bone marrow cells were obtained from discarded bags of bone marrow grafts from healthy donors and either kept in RPMI with 25% (v/v) HS-5 supernatant for up to 14 days for isolated cytotoxicity assays or frozen and thawed for the sandwich assay. All cells were cultured at 37° C., 5% CO2 in humidified air.

recombinant PDI = recombinant PDI (Homo sapiens, UniProt P07237); assay: PDI activity assay (di-eosin-di-gluthathione, eGSSG); format: biochemical; settings: for PDI Activity at 10 μM (%): compound at 10 μM; for IC50: recombinant PDI, di-eosin-di-gluthathione assay
Sequence of recombinant PDI (P07237 18-508, species assumed): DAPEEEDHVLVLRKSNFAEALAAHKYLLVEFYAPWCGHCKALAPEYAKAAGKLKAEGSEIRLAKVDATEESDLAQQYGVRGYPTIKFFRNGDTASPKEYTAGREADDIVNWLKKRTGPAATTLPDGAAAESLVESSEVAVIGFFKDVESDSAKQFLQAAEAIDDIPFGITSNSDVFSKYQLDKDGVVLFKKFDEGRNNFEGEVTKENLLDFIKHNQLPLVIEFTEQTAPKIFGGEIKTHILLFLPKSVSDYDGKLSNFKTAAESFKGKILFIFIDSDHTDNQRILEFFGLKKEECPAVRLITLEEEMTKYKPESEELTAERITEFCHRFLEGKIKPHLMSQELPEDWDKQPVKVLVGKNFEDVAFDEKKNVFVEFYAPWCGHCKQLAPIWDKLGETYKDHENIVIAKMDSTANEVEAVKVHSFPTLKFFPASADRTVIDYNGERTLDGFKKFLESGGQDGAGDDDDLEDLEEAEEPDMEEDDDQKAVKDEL
Experimental: PDI activity assay: The di-eosin-di-gluthathione assay was performed essentially as described (Raturi, A. and Mutus, B Free Radical Biology & Medicine 43; 2007) with the minor modification that we used gluthathione instead of DTT as reducing agent. Briefly, recombinant PDI was incubated with CC642 or analogs in potassium-based assay buffer at 37° C. before reactions were started by addition of gluthathione and di-eosin-di-gluthathione. Release of eosin was measured every 60 seconds for 30 min using excitation/emission filters of 525 nm/545 nm, respectively.
(§1) Next, MM1.S cells were treated with B-CCF642 and purified lysates of treated and untreated cells for B-CCF642 binding proteins using streptavidin beads followed by SDS-PAGE and mass spectroscopy for protein sequencing of a band that contained biotin signal. Among 10 proteins that were only recovered from treated cells PDI was the most abundant but HSP70 family members were also recovered. To test whether HSP70 family members were inhibited by CCF642, chaperone assays were performed that tested rearrangement of partially denatured luciferase. […] However, PDI function, as assessed by the eGSSG assay which measures PDI's reducing capacity, was inhibited by CCF642 (table 1). […] To determine whether PDI activity is inhibited in vivo, the inventors performed IRE1-α immunoblots after CCF642 treatment of MM1.S cells. IRE1-α acts as a sensor for misfolded proteins in the ER and undergoes oligomerization after it binds to misfolded proteins which changes its conformation into an active state. Lavoie et al., Trends in biochemical sciences, 39(10):475-486 (2014). Within 15 min CCF642 caused IRE1-α oligomerization (FIG. 6) which was associated with increase in protein ubiquitination (FIGS. 2b and 4), a well-documented consequence of reduction in PDI activity. Lee et al., EMBO molecular medicine. 6(6):732-743 (2014).

[1] = test system: normal bone marrow (NL BM) cells; assay: Cytotoxicity in normal bone marrow; format: cell-based; settings: three independent normal bone marrow samples; doses up to 6.75 μM
Experimental: (§2) FIGS. 2(A-B) provide a graph and immunoblot showing the effect of CCF642 on cancer and protein ubiquitination, with FIG. 2(A) showing the activity of CCF642 against a panel of MM and lymphoma cells. Seventy two hours after CCF642 administration, the IC50 by trypan blue exclusion (Vicell™) is <1 μM for all MM and all but one lymphoma line. Normal bone marrow (NL BM) tolerated CCF642; myeloid cells were less sensitive, especially GDM1, with E3 ligase domain mutation of c-CBL and FIG. 2(B) showing that an increase in protein ubiquitination is accompanied by loss of myeloma survival factors in MM cells Immunoblots of MM1.S cells show rise followed by decrease of protein ubiquitination with loss of MM survival factors.
(§3) Cell lines: Multiple myeloma cell lines MM1.S, MM1.R, NCI-H929 were obtained from ATCC. MM cell lines KMS-12-PE and KMS-12-BM were from the JCRB, JJN-3 from DSMZ, and 5TGM1-luc cells were from Dr. Yoneda at the University of Texas Health Science at San Antonio. HRMM.09 cells were generated in the inventor's lab from a patient who developed refractory myeloma after treatment with steroids, IMiD, proteasome inhibitors, DNA alkylators, and anthracyclines. MM1.S-luc and HRMM.09-luc were generated in the inventor's laboratory by transduction with Cignal™ firefly luciferase control lentivirus obtained from Qiagen™. Lymphoma cells were generated by Mitchell Smith. […]

lymphoma cell lines = assay: Cytotoxicity in lymphoma cell line panel (trypan blue exclusion, Vicell); format: cell-based; settings: 6 of 7 (all but one) lymphoma lines, 72 h
Experimental: as §2, §3

protein ubiquitination = assay: Protein ubiquitination time course immunoblot in MM1.S cells; format: cell-based
Description: Protein ubiquitination and depletion of c-MYC, IRF4, and NF-κB. Initial tests were aimed at excluding proteasome inhibitors from further study and used WB for accumulation of ubiquitinated proteins after one day of therapy. […] Another proteasomally regulated protein, p27, disappeared as well.

IRE1-α = IRE1-α oligomerization immunoblot in MM1.S cells; format: cell-based
Experimental: as §1

MM cell lines = assay: Cytotoxicity in MM cell line panel (trypan blue exclusion, Vicell); format: cell-based; settings: 72 h, all 8 MM cell lines tested
Experimental: as §2, §3

| SMILES | viability at 6.75 µM (MM1.S) | IC50 (MM1.S) | PDI Activity at 10 μM (%) (recombinant PDI) | IC50 (recombinant PDI) | further results |
| --- | --- | --- | --- | --- | --- |
| CC(C)C[C@H](NC(=O)[C@H](Cc1ccccc1)NC(=O)c1cnccn1)B(O)O [bortezomib, reference compound] | – | – | – | – | maximal tolerated dose (Tolerability in mice; SC twice a week, C57BL/KaLwRij mice): 0.5 mg/kg |
| COc1ccc(N2C(=O)/C(=C/c3cccc([N+](=O)[O-])c3)SC2=S)cc1 [642-24] | 93.5% | > 6750 nM | 42.12% | 8660 nM | – |
| COc1ccc(N2C(=O)/C(=C/c3ccc([N+](=O)[O-])s3)SC2=S)cc1 [642-Parent] | 8.06% | 250 nM | 21.51% | 2440 nM | tolerability in 5TGM1-luc engrafted mice (Tolerability in mice; C57BL/KaLwRij mice systemically engrafted with 5TGM1-luc): well tolerated; tolerability IV (Tolerability in mice; albumin-based formulation (10-20% BSA, saline, 10% DMSO) given IV): tolerated by mice when given IV; IC50 [1]: > 6750 nM; IC50 (lymphoma cell lines): < 1000 nM; time to increase in protein ubiquitination (protein ubiquitination): ≤ 30 min; time to IRE1-α oligomerization (IRE1-α): ≤ 15 min; IC50 (MM cell lines): < 1000 nM; IC50 (MM cell lines; listed as CCF642): ~500 nM |
| COc1ccc(N2C(=O)C(=Cc3ccc(C(F)(F)F)s3)SC2=S)cc1 [642-20] | 92.9% | > 6750 nM | 72.37% | – | – |
| COc1ccc(N2C(=O)C(=Cc3ccc(C(=O)O)s3)SC2=S)cc1 [642-21] | 102% | > 6750 nM | 71.54% | – | – |
| N#Cc1ccc(N2C(=O)C(=Cc3ccc([N+](=O)[O-])s3)SC2=S)cc1 [642-23] | 17.5% | 610 nM | 5.92% | 1900 nM | – |
| C=CCc1cccc(/C=C2\SC(=S)N(c3ccc(OC)cc3)C2=O)c1O [642-25] | 92.8% | > 6750 nM | 40.37% | 3070 nM | – |
